Laboratory results as given in patent US20250215071A1, “Novel Mcl-1 inhibitor and combination of Mcl-1 and a BH3 mimetic, such as a Bcl-2 inhibitor” (NETRIS PHARMA, priority 2022, published 2025).
Residues, ends and D or L forms follow the SMILES beside them. *: point of attachment. Cbz = O=C(OCc1ccccc1)*

Columns and labels:
Assay type in all cases: cell-based, Human
[1] = system: HeLa UNC5B cells; experiment: UNC5B-induced DNA fragmentation in HeLa UNC5B cells; conditions: doxycycline-induced UNC5B; 18 hours
Procedure: FIG. 2. CRISPR-Cas9 screening identifies genes and molecular pathways involved in UNC5B-induced cell death. Related to FIG. 1. (A): UNC5B induction upon treatment with doxycycline. Stable HCT116 cells, inducible for UNC5B, were treated with the indicated concentrations of doxycycline (Dox). 24 hours later, protein levels of FLAG-UNC5B and GAPDH, used as housekeeping gene, were assessed by western blot. (B): UNC5B induction upon treatment with doxycycline on Hela cells. Stable Hela cells inducible for UNC5B (HeLa UNC5B) were treated with the indicated doses of Dox for 18 hours. Protein levels of His-UNC5B and β-actin, used as housekeeping gene, were measured by western blot. (C,D,E): Induction of UNC5B triggers apoptotic cell death in HCT116 cells. Stable HCTT16 cells inducible for human UNC5B were treated with Dox. To assess cell death, propidium iodide (PI) incorporation was followed in real-time up to 36 hours, using an Incucyte Zoom technology (n=3, ** p<0.01, Kolmogorov Smirnov test) (C). Apoptosis was assessed 18 hours after Dox treatment by DNA fragmentation through flow cytometry ([…] (D) and by caspase-3 activity (E), quantified by fluorometric detection kit (n=3, *p<0.05, ** p<0.01, *** p<0.001, Ordinary two-way ANOVA). Values are given as means±SEM. (F): Caspase inhibition rescues apoptosis triggered by UNC5B. HeLa UNC5B cells were treated with Dox and the pan-caspase inhibitor […] (QVD). 18 hours later, DNA fragmentation was evaluated by flow cytometry (n=3, **** p<0.0001, ordinary two-way ANOVA with Šidák's multiple comparisons test). Values are given as means±SEM. […] The number of guides showing an increase in reads compared to control condition is shown for each gene.
FIG. 4. […] 18 hours after treatment, apoptosis was measured by DNA fragmentation (A) and caspase-3 activity (B) (n=3-4, **** p<0.0001, ordinary two-way ANOVA with Tukey's multiple comparisons test). […] Protein levels of Mcl-1, Bcl-2 and Bcl-XL, as well as of UNC5B and B-actin, used as housekeeping gene, were evaluated by western blot. […]

[2] = system: Mcl-1; experiment: Mcl-1 protein levels by western blot in HeLa UNC5B cells; conditions: endogenous Mcl-1; 2 μg/mL Dox; BTZ 1 μM, QVD 10 µM; 16 hours
Procedure: FIG. 4. UNC5B triggers proteasomal degradation of Mcl-1. (A,B): UNC5B-induced apoptosis requires proteasome activity. Stable Hela cells inducible for UNC5B (HeLa UNC5B) were treated with doxycycline (Dox) at 2 μg/mL, in combination with the indicated doses of the proteasome inhibitors MG132 and bortezomib (BTZ). 18 hours after treatment, apoptosis was measured by DNA fragmentation (A) and caspase-3 activity (B) (n=3-4, **** p<0.0001, ordinary two-way ANOVA with Tukey's multiple comparisons test). Values are given as means±SEM Treatment with proteasome inhibitors was sufficient to strongly reduce apoptosis induction upon UNC5B over-expression. (C): UNC5B triggers Mcl-1 degradation. HeLa UNC5B cells were treated with 2 μg/mL of Dox, in combination with bortezomib (BTZ, 1 μM) and the pan-caspase inhibitor Q-VD-OPh (QVD, 10 µM) inhibitors. 16 hours after treatment, cells were lysed by scraping and sonication in SDS-containing buffer. Protein levels of Mcl-1, Bcl-2 and Bcl-XL, as well as of UNC5B and B-actin, used as housekeeping gene, were evaluated by western blot. […] UNC5B over-expression specifically promoted Mcl-1 protein decrease. […] (D): Mcl-1 degradation induced by UNC5B requires COMMD2/CRL3 complex. HeLa UNC5B cells were transfected with scramble (siCTRL), COMMD2 (siCOMMD2) or RBX1 (siRBX1) siRNAs. […] Protein levels of Mcl-1, UNC5B and Ku80, used as housekeeping protein, were evaluated by western blot. […] Stable HeLa UNC5B cells, constitutively expressing Mcl-1 or empty vector, were treated with doxycycline and apoptosis was evaluated 18 hours later by DNA fragmentation (n=3, ^nsp>0.05, ordinary two-way ANOVA with Sidak's multiple comparisons test). […] Stable HeLa UNC5B cells, constitutively expressing Mcl-1, Bcl-2 or Bcl-XL were treated with Dox and protein levels were evaluated as described in (C). […] 18 hours later, protein levels of Mcl-1, UNC5B and β-actin, used as housekeeping gene, were evaluated by western blot. […] Cells were harvested at the indicated times after CHX treatment, and protein levels were assessed by western blot. […]

[3] = system: caspase-3; experiment: UNC5B-induced caspase-3 activity in HeLa UNC5B cells; conditions: doxycycline 2 μg/mL; 18 hours
Procedure: Caspase-3 and -9 activity assays were performed as described previously (Paradisi et al., 2013; Paradisi et al., 2009). Briefly, HCT116 and HeLa cells were seeded and treated as for DNA fragmentation assay. Cells were then collected and caspase-3/caspase 9 activity assays were performed using the Caspase-3/Caspase-9 Fluorometric Assay Kit (BioVision, Milpitas, CA, USA), according to the manufacturer's instructions. Caspase activity (activity/min/mg of protein) was calculated from a 1 h kinetic cycle reading on a spectrofluorometer (405 nm/510 nm, Infinite F500, Tecan, Männedorf, Switzerland).

[4] = system: caspase-9; experiment: UNC5B-induced caspase-9 activity in HeLa UNC5B cells; conditions: Dox; 18 hours
Procedure: FIG. 5. UNC5B-mediated Mcl-1 degradation induces MOMP and caspase-9 activation. (A): UNC5B over-expression triggers Mitochondrial Outer Membrane Permeabilization (MOMP) in a COMMD2/CRL3 complex-dependent manner. Hela cells were transfected with scramble (siCTRL), COMMD2 (siCOMMD2-1) or RBX1 (siRBX1-1) siRNAs. 24 hours after transfection, cells were treated with Dox and after further 18 hours mitochondrial depolarization quantified by 5′,6,6′-tetrachloro-1,1′,3,3′-tetraethylbenzimi-dazolylcarbocyanine iodide (JC-1) dye staining, using NucleoCounter NC3000 (n=3, **** p<0.0001, ordinary two-way ANOVA with Tukey's multiple comparisons test). Values are given as means±SEM. (B,C,D): Apoptotic cell death induced by UNC5B over-expression requires caspase-9. HeLa UNC5B cells were transfected with scramble (siCTRL) or caspase-9 (siCASP9) siRNAs and 24 hours later treated with the indicated concentrations of Dox. Propidium iodide (PI)-positive cells were assessed in real-time up to 48 hours using Incucyte Zoom instrument (C) (n=[…], Kolmogorov-Smirnov test). DNA fragmentation was assessed by FACS analysis (D) and caspase-3 was measured using caspase-3 fluorometric kit (E), both 18 hours after treatment (n=[…], **** p<0.0001, ordinary two-way ANOVA with Šidák's multiple comparisons test). Values are given as means±SEM. […] HeLa UNC5B cells were treated with Dox and 18 hours later caspase-9 and -8 activities were assessed by fluorometric kit, using specific substrates (n=3, ^nsp>0.05, *p<0.05, Mann-Whitney test, one-tailed). […] 24 hours later, cells were treated with Dox and caspase-9 activity was measured by fluorometric kit (n=3, **** p<0.0001, ordinary two-way ANOVA with Tukey's multiple comparisons test). […] 18 hours after treatment, caspase-9 activity was assessed with the fluorometric kit (n=5, *p<0.05, ** p<0.01, *** p<0.001, **** p<0.0001, ordinary two-way ANOVA with Tukey's multiple comparisons test). […] Cells were then treated with Dox and Mcl-1 protein was evaluated by western blot. […]

Structure (SMILES)	UNC5B-induced apoptosis (DNA fragmentation) [1]	Mcl-1 protein levels / degradation triggered by UNC5B [2]	UNC5B-induced caspase-3 activation [3]	UNC5B-induced caspase-9 activation [4]
CC(C)[C@H](NC(=O)c1ccc2ccccc2n1)C(=O)N[C@@H](CC(=O)O)C(=O)COc1c(F)cccc1F [Q-VD-OPh]	completely prevented apoptosis induction	not sufficient to prevent Mcl-1 degradation	–	–
CC(C)C[C@@H](C=O)NC(=O)[C@H](CC(C)C)NC(=O)[C@H](CC(C)C)NC(=O)OCc1ccccc1 [MG132] (Cbz-Leu-Leu-Leu-aldehyde)	suppressed	–	suppressed	sufficient to prevent UNC5B-induced caspase-9 activation
